Measurements as given in patent US8629148B2, “Substituted oxindole-derivatives and the use thereof for the treatment of vasopressin-dependent illnesses” (AbbVie Deutschland GmbH & Co. KG, priority 2007, dated 2014).

Legend:
[1] = target: T1, human vasopressin V1b receptor (Homo sapiens, UniProt P47901); experiment: Vasopressin V1b receptor binding assay (3H-AVP displacement, CHO-K1 membranes)
T1 construct: expressed in transfected cells; host or cells: CHO-K1 (cell line hV1b_3H2_CHO), membranes
T1 sequence (P47901 1-424): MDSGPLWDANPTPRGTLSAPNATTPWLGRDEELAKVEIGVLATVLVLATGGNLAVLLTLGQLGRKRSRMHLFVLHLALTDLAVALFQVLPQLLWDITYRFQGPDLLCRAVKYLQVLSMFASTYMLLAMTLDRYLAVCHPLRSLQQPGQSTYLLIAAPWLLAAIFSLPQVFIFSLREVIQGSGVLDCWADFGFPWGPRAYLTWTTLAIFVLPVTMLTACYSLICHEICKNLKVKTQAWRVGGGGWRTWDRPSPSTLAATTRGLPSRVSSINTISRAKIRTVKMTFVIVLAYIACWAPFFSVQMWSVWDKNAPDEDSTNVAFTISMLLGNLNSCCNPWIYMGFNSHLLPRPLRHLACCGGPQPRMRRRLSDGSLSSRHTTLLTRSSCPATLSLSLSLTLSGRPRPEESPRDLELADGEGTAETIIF
Procedure: 1. Vasopressin V1b Receptor Binding Assay:
The substance concentration was further diluted 1:5 in the assay mixture (2% DMSO in the mixture).
All determinations were carried out as triplicate determinations.

[2] = target: T2, recombinant human oxytocin receptors (Homo sapiens, UniProt P30559); experiment: Oxytocin receptor binding assay (3H-oxytocin, HEK-293 cells); conditions: selectivity quotient, human OT vs human V1b
T2 construct: expressed in transfected cells; host or cells: HEK-293, transient expression; lysed and homogenized cells
T2 sequence (P30559 1-389): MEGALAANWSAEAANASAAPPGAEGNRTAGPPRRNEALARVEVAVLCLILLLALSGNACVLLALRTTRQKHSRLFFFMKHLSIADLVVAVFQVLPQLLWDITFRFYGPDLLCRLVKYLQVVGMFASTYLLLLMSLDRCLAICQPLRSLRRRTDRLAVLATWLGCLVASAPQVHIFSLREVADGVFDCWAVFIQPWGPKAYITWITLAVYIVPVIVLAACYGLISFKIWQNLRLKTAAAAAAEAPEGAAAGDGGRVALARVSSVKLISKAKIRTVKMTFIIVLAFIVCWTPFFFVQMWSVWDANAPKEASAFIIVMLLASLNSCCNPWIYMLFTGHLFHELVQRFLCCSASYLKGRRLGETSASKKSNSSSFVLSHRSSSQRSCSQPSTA
Procedure: The residue was taken up in ice-cold lysis buffer (50 mM Tris-HCl, 10% glycerol, pH 7.4 and Roche complete protease inhibitor) and subjected to an osmotic shock at 4° C. for 20 minutes. The lyzed cells were then centrifuged at 750×g at 4° C. for 20 minutes, the residue was taken up in incubation buffer, and aliquots of 10^7 cells/ml were prepared. The aliquots were frozen at −80° C. until used.
On the day of the experiment, the cells were thawed, diluted with incubation buffer and homogenized using a Multipette Combitip (Eppendorf, Hamburg). […] Triplicate determinations were set up. Bound and free radioligand were separated by filtration under vacuum with Whatman GF/B glass fiber filters with the aid of a Skatron cell harvester 7000. The bound radioactivity was determined by liquid scintillation measurement in a Tricarb Beta counter, model 2000 or 2200CA (Packard).

[3] = target: human vasopressin V1a receptor (Homo sapiens, UniProt P37288); experiment: Vasopressin V1a receptor binding assay (125I-AVP displacement, CHO-K1 membranes); conditions: selectivity quotient, human V1a vs human V1b
Chain of human vasopressin V1a receptor (P37288 whole entry): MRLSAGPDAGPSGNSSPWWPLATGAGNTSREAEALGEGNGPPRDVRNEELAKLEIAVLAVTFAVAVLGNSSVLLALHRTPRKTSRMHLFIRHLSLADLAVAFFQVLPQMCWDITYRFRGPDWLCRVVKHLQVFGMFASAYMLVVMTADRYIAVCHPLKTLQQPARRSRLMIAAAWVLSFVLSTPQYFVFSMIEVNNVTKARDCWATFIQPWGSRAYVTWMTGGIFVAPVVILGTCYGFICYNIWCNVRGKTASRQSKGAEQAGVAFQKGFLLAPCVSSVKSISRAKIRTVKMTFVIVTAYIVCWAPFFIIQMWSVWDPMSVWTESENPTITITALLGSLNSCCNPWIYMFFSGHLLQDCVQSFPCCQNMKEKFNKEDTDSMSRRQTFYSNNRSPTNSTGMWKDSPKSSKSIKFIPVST

Row | Ki [1] | Ki(h-OT)/Ki(h-V1b)* [2] | Ki(h-V1a)/Ki(h-V1b)* [3] | SMILES
1 | 10 to 100 nM | +++ (>75) | ++ (25-75) | CCN1CCN(c2ccc(NC3(c4cccnc4OCC(F)F)C(=O)N(S(=O)(=O)c4ccc(OC)cc4)c4ccc(C#N)cc43)cc2)CC1 (stereo not drawn) [Example 79, 3-[4-(4-Ethylpiperazin-1-yl)phenylamino]-1-(4-methoxyphenylsulfonyl)-3-(2-(2,2-difluoroethoxy)pyridin-3-yl)-2-oxo-2,3-dihydro-1H-indole-5-carbonitrile]
2 | 1 to 10 nM | ++ (25-75) | + (10-<25) | CCOc1ncccc1C1(NCc2ccc(N3CCN(C)CC3)cc2)C(=O)N(S(=O)(=O)c2ccc(OC)cc2)c2cc(F)c(F)cc21 (stereo not drawn) [Example 14, 5,6-Difluoro-3-(2-ethoxypyridin-3-yl)-1-(4-methoxyphenylsulfonyl)-3-[4-(4-methylpiperazin-1-yl)benzylamino]-1,3-dihydroindol-2-one]
3 | 1 to 10 nM | +++ (>75) | + (10-<25) | CCOc1ncccc1C1(NCc2ccc(N3CCN(CC)CC3)cc2)C(=O)N(S(=O)(=O)c2ccc(OC)cc2)c2cc(F)c(C#N)cc21 (stereo not drawn) [Example 35, 3-(2-Ethoxypyridin-3-yl)-3-[4-(4-ethylpiperazin-1-yl)benzylamino]-6-fluoro-1-(4-methoxyphenylsulfonyl)-2-oxo-2,3-dihydro-1H-indole-5-carbonitrile]
4 | 1 to 10 nM | + (10-<25) | + (10-<25) | CCOc1ncccc1C1(NCc2ccc(N3CCN(C)CC3)cc2)C(=O)N(S(=O)(=O)c2ccc(OC)cc2OC)c2ccc(C#N)cc21 (stereo not drawn) [Example 17, 1-(2,4-Dimethoxyphenylsulfonyl)-3-(2-ethoxypyridin-3-yl)-3-[4-(4-methylpiperazin-1-yl)-benzylamino]-2-oxo-2,3-dihydro-1H-indole-5-carbonitrile]
